According to US4032659A (priority 1975, dated 1977):
Entries after “also recorded” stand apart in the source; their conditions may differ. Structures can show the parent of a compound that is named as a salt.

System: Influenza Ann Arbor virus
Assay: Chemoprophylaxis of Influenza Ann Arbor (A1) virus infection in mice
Type: in vivo, mouse
[1] = subcutaneous, total dose .003 μg

| SMILES | No. animals surviving after 6 days (oral, total dose 30 pg) | Survivors (oral, total dose 30 pg) | No. animals surviving after 6 days (oral, total dose 300 pg) | Survivors (oral, total dose 300 pg) | No. animals surviving after 6 days (oral, total dose 3 ng) | Survivors (oral, total dose 3 ng) | No. animals surviving after 6 days (oral, total dose 30 ng) | Survivors (oral, total dose 30 ng) | No. animals surviving after 6 days (oral, total dose 300 ng) | Survivors (oral, total dose 300 ng) | No. animals surviving after 6 days (oral, total dose 3 μg) | Survivors (oral, total dose 3 μg) | No. animals surviving after 6 days (oral, total dose 30 μg) | Survivors (oral, total dose 30 μg) | No. animals surviving after 6 days (oral, total dose 300 μg) | Survivors (oral, total dose 300 μg) | Survivors (oral, total dose 3 mg) | also measured |
| --- | --- | --- | --- | --- | --- | --- | --- | --- | --- | --- | --- | --- | --- | --- | --- | --- | --- | --- |
| CC(C)=NNC(N)=S [acetone, thiosemicarbazone] | 3 | 1 | 2 | 0 | 2 | 0 | 2 | 0 | 3 | 0 | 5 | 0 | 2 | 0 | 3 | 0 |  |  |
| CNNC [1,2-dimethylhydrazine, dihydrochloride] | 6 | 1 | 2 | 0 | 3 | 0 | 3 | 1 | 5 | 0 | 3 | 0 | 4 | 0 | 6 | 0 | 0 | No. animals surviving after 6 days (oral, total dose 3 mg): 3 |
| CCC(C)=NNC(=N)N.O=[N+]([O-])O [1-(sec-butylideneamino)guanidine, nitrate] |  |  |  |  |  | 0 |  | 0 |  | 2 |  | 0 |  | 2 |  | 0 |  | No. animals surviving after 7 days (oral, total dose 3 ng): 0; No. animals surviving after 7 days (oral, total dose 30 ng): 1; No. animals surviving after 7 days (oral, total dose 300 ng): 3; No. animals surviving after 7 days (oral, total dose 3 μg): 0; No. animals surviving after 7 days (oral, total dose 30 μg): 2; No. animals surviving after 7 days (oral, total dose 300 μg): 0 |
| C=CCNC(=S)NN=C1Cc2ccccc2C1 [2-Indanone, 4-allylthiosemicarbazone] |  | 0 |  | 0 |  | 0 |  | 0 |  | 0 |  | 0 |  | 0 |  | 0 | 1 | No. animals surviving after 7 days (oral, total dose 30 pg): 4; No. animals surviving after 7 days (oral, total dose 300 pg): 7; No. animals surviving after 7 days (oral, total dose 3 ng): 4; No. animals surviving after 7 days (oral, total dose 30 ng): 6; No. animals surviving after 7 days (oral, total dose 300 ng): 6; No. animals surviving after 7 days (oral, total dose 3 μg): 2; No. animals surviving after 7 days (oral, total dose 30 μg): 6; No. animals surviving after 7 days (oral, total dose 300 μg): 2; No. animals surviving after 7 days (oral, total dose 3 mg): 4 |
| N=C(N)NN [aminoguanidine] |  |  |  | 1 |  | 1 |  | 2 |  | 4 |  | 3 |  | 5 |  |  |  | No. animals surviving after 7 days (oral, total dose 300 pg): 6; No. animals surviving after 7 days (oral, total dose 3 μg): 8; No. animals surviving after 7 days (oral, total dose 30 μg): 8; survival (subcutaneous, one dose level): 50%; No. animals surviving after 7 days (subcutaneous, total dose 3 μg): 6; Survivors (subcutaneous, total dose 3 μg): 2; Survivors (subcutaneous, total dose 30 μg): 2; No. animals surviving after 7 days (subcutaneous, total dose .0003 μg): 8; No. animals surviving after 7 days [1]: 8; Survivors [1]: 0; Survivors (subcutaneous, total dose .03 μg): 1; Survivors (subcutaneous, total dose .3 μg): 1 |
| CCC(CC)=NNC(N)=S [3-pentanone, thiosemicarbazone] | 2 | 0 | 1 | 0 | 3 | 0 | 0 | 0 | 3 | 0 | 6 | 1 | 7 | 0 | 4 | 0 |  | No. animals surviving after 7 days (oral, total dose 12 μg): 1; Survivors (oral, total dose 12 μg): 0; No. animals surviving after 7 days (oral, total dose 18 μg): 1; Survivors (oral, total dose 18 μg): 1; No. animals surviving after 7 days (oral, total dose 24 μg): 0; Survivors (oral, total dose 24 μg): 0; No. animals surviving after 7 days (oral, total dose 60 μg): 1; Survivors (oral, total dose 60 μg): 0; No. animals surviving after 7 days (oral, total dose 90 μg): 3; Survivors (oral, total dose 90 μg): 0; No. animals surviving after 7 days (oral, total dose 120 μg): 1; Survivors (oral, total dose 120 μg): 1; No. animals surviving after 7 days (oral, total dose 150 μg): 2; Survivors (oral, total dose 150 μg): 1 |
| CNN [Methylhydrazine, methylhydrazine] | 2 | 1 | 3 | 0 | 3 | 1 | 4 | 1 | 1 | 0 | 3 | 0 | 3 | 1 | 1 | 0 |  | Toxicity (oral, total dose 3 mg): Toxic; also recorded: Toxic? |
| CCOC(=O)CC(C)=NNC(N)=S [acetoacetic acid, ethyl ester, thiosemicarbazone] |  | 0 |  | 0 |  | 0 |  | 0 |  | 0 |  | 0 |  | 0 |  | 0 | 0 | No. animals surviving after 5 days (oral, total dose 30 pg): 8; No. animals surviving after 5 days (oral, total dose 300 pg): 4; No. animals surviving after 5 days (oral, total dose 3 ng): 5; No. animals surviving after 5 days (oral, total dose 30 ng): 5; No. animals surviving after 5 days (oral, total dose 300 ng): 4; No. animals surviving after 5 days (oral, total dose 3 μg): 6; No. animals surviving after 5 days (oral, total dose 30 μg): 8; No. animals surviving after 5 days (oral, total dose 300 μg): 7; No. animals surviving after 5 days (oral, total dose 3 mg): 5 |
| NC(N)=S [Thiourea] |  | 0 |  | 0 |  | 1 |  | 0 |  | 0 |  | 0 |  | 0 |  | 1 | 0 | No. animals surviving after 7 days (oral, total dose 30 pg): 2; No. animals surviving after 7 days (oral, total dose 300 pg): 4; No. animals surviving after 7 days (oral, total dose 3 ng): 3; No. animals surviving after 7 days (oral, total dose 30 ng): 4; No. animals surviving after 7 days (oral, total dose 300 ng): 2; No. animals surviving after 7 days (oral, total dose 3 μg): 7; No. animals surviving after 7 days (oral, total dose 30 μg): 3; No. animals surviving after 7 days (oral, total dose 300 μg): 6; No. animals surviving after 7 days (oral, total dose 3 mg): 5 |
| CCCC(C)=NNC(N)=S [2-pentanone, thiosemicarbazone] | 2 | 0 | 2 | 0 | 2 | 0 | 2 | 0 | 1 | 0 | 1 | 0 | 1 | 1 | 0 | 0 |  | No. animals surviving after 7 days (oral, total dose 15 ng): 3; Survivors (oral, total dose 15 ng): 0; No. animals surviving after 7 days (oral, total dose 22.5 ng): 0; Survivors (oral, total dose 22.5 ng): 0; No. animals surviving after 7 days (oral, total dose 75 ng): 1; Survivors (oral, total dose 75 ng): 0; No. animals surviving after 7 days (oral, total dose 150 ng): 0; Survivors (oral, total dose 150 ng): 0; No. animals surviving after 7 days (oral, total dose 225 ng): 3; Survivors (oral, total dose 225 ng): 0; No. animals surviving after 7 days (oral, total dose 750 ng): 2; Survivors (oral, total dose 750 ng): 0; No. animals surviving after 7 days (oral, total dose 1.5 μg): 2; Survivors (oral, total dose 1.5 μg): 0; No. animals surviving after 7 days (oral, total dose 2.25 μg): 1; Survivors (oral, total dose 2.25 μg): 1 |
| Cc1ccccc1NC(=S)NN=C1CCCC1 [cyclopentanone, 3-thio-4-o-tolylsemicarbazone] |  | 0 |  | 0 |  | 0 |  |  |  | 0 |  | 0 |  | 0 |  | 0 | 0 | No. animals surviving after 5 days (oral, total dose 30 pg): 6; No. animals surviving after 5 days (oral, total dose 300 pg): 9; No. animals surviving after 5 days (oral, total dose 3 ng): 9; No. animals surviving after 5 days (oral, total dose 30 ng): 9; No. animals surviving after 5 days (oral, total dose 300 ng): 6; No. animals surviving after 5 days (oral, total dose 3 μg): 6; No. animals surviving after 5 days (oral, total dose 300 μg): 9; No. animals surviving after 5 days (oral, total dose 3 mg): 8 |
| NC(=S)NN=C1Cc2ccccc2C1 [2-indanone, thiosemicarbazone] |  | 1 |  | 0 |  | 0 |  | 0 |  | 1 |  | 1 |  | 0 |  | 0 |  | No. animals surviving after 5 days (oral, total dose 30 pg): 8; No. animals surviving after 5 days (oral, total dose 300 pg): 8; No. animals surviving after 5 days (oral, total dose 3 ng): 5; No. animals surviving after 5 days (oral, total dose 30 ng): 9; No. animals surviving after 5 days (oral, total dose 300 ng): 8; No. animals surviving after 5 days (oral, total dose 3 μg): 8; No. animals surviving after 5 days (oral, total dose 30 μg): 8; No. animals surviving after 5 days (oral, total dose 300 μg): 6 |
| CN(C)N [1,1-dimethylhydrazine] | 5 | 0 | 3 | 0 | 3 | 1 | 2 | 0 | 3 | 0 | 2 | 0 | 1 | 1 | 3 | 0 | 0 | No. animals surviving after 6 days (oral, total dose 3 mg): 2 |
| O=C(CCNNC(=O)c1ccncc1)NCc1ccccc1 [Nialamide, nialamide, reference compound] |  |  |  |  |  |  |  |  |  |  |  |  |  |  |  |  |  | Survivors (oral, total dose 400pg): 1; Survivors (oral, total dose 4ng): 1; Survivors (oral, total dose 40ng): 0; Survivors (oral, total dose 400ng): 0; Survivors (oral, total dose 4μg): 0; Survivors (oral, total dose 400 μg): 2; Survivors (oral, total dose 4 mg): 1 |
